Test results: US6916905B2, “Dmt-Tic di-and tri-peptidic derivatives and related compositions and methods of use” (The United States of America as represented by the …, priority 2000, dated 2005)
Entries after “also recorded” stand apart in the source; their conditions may differ. Where two headings read alike, the source gives them in different places. Non-standard residues stand in square brackets, D forms with d. Residues, ends and D or L forms follow the SMILES beside them. *: point of attachment. Dmt = Cc1cc(O)cc(C)c1C[C@H](N)C(=O)O; Tic = O=C(O)[C@@H]1Cc2ccccc2CN1; NHtBu = CC(C)(C)N*

Key:
μ receptors = μ receptors (Cavia porcellus, UniProt P97266); test: Guinea pig ileum (GPI) functional bioassay (Example 48)
Description: (§1) The functional bioactivity of the present inventive compounds was assessed using standard functional bioassays of δ and μ activity in MVD and GPI (Salvadori et al. (1995), supra; and Salvadori et al., J. Med. Chem. 36: 3748-3756 (1993)). […] Dose-response curves were obtained (Salvadori et al. (1995), supra) for both tissues. […] Data were derived from at least four independent tissue samples and dose-response curves from which the pA2 values were determined (Salvadori et al. (1997), supra) according to Arunlakshana and Schild (Br. J. Pharmacol. 14: 48-58 (1959)).

hMDR-1 = hMDR-1 (Homo sapiens, UniProt P08183); test: Calcein AM assay for Pgp in hMDR-1 transfected G-185 fibroblasts (Example 49); details: for inhibition of hMDR-1 (Pgp), in words: calcein fluorescence; for order of inhibition of hMDR-1: rank within amide series
Description: Stably transfected G-185 fibroblasts containing hMDR-1 and NIH 3T3 cell lines were grown to confluent monolayers in DMEM containing 4.5 g glucose/1, 10% fetal calf serum, L-glutamine, penicillin (50 units/ml), streptomycin (50 μg/ml) and 1 mM sodium pyruvate in 5% CO2 at 37° C. G-185 cells were maintained in […] colchicine.
The assay for Pgp is based on the diffusion of non-fluorescent calcein AM across the cell membrane. Calcein AM is then hydrolyzed and accumulates as the fluorescent calcein. In transfected cells expressing excess hMDR-1, Pgp extrudes calcein AM from the cell before hydrolysis occurs; inhibition of hMDR-1 results in the accumulation of intracellular calcein. Transfected G-185 cells and the NIH 3T3 cells were analyzed in triplicate using seven graded dosages of verapamil or the opioid peptides in 96-well plates. Cells (2.5×10^6/well) were incubated in 100 μl culture medium for 15 min at 37° C. and 50 μl of 1 μM calcein AM in PBS, plus 50 μl of verapamil or one of the present inventive compounds in PBS, or 100 μl of PBS alone (control) were added. Cells were mixed and incubated for 15 min at 37° C., then centrifuged for 5 min at 2,000×g, and then washed three times in 200 μl PBS. Cell pellets were resuspended in 200 μl PBS and transferred to white Microfluor Plates (Nunc, Copenhagen, Denmark) in order to measure calcein-specific fluorescence (494 nm absorption; 517 nm emission). Internal controls were carried out with each experiment using verapamil and PBS in order to compare the consistency between cell preparations. Means±SE (error bars) were determined and plotted using Prism™ (GraphPad, San Diego, Calif.).

δ-opioid receptors [1] = target: T1, δ-opioid receptors (Rattus norvegicus, UniProt P33533); test: Rat brain synaptosome (P2) binding, agonist [3H]DPDPE (Example 47); details: for δ/μ selectivity, in words: from Table II binding; for Agonist K1μ/Kiδ: selectivity, Kiδ from agonist radioligand [3H]DPDPE
T1 construct: assayed with a rat brain synaptosomal preparation (P2); from tissue; host or cells: rat brain P2 synaptosomes
Description: (§2) Briefly, the agonists [^3H]DPDPE (30-60 Ci/mmol, NEN-DuPont) and [^3H]DAGO (30-60 Ci/mmol, Amersham) were used to label δ and μ sites, respectively, under saturation binding conditions (2 hrs at 22° C.). Excess unlabeled peptide (2 μM) established non-specific binding levels and the labeled membranes were rapidly filtered on Whatman GF/C glass fibre filters, thoroughly washed, dried and measured for radioactivity using CytoScint (ICN, Irvine, Calif.). […] The affinity constants (Ki) were calculated according to Cheng and Prusoff (Biochem. Pharmacol. 22: 3099-3108 (1973)).

δ-opioid receptors [2] = target: T1, δ-opioid receptors; test: Rat brain synaptosome (P2) binding, δ antagonist [3H]N,N(CH3)2-Dmt-Tic-OH (Example 47); details: for Antagonist K1μ/Kiδ: selectivity, Kiδ from antagonist radioligand [3H]N,N(CH3)2-Dmt-Tic-OH
Description: as §2

μ-opioid receptors = target: T2, μ-opioid receptors (Rattus norvegicus, UniProt P33535); test: Rat brain synaptosome (P2) binding, [3H]DAGO (Example 47)
T2 construct: assayed with a rat brain synaptosomal preparation (P2); from tissue; host or cells: rat brain P2 synaptosomes

δ receptors = δ receptors (Mus musculus, UniProt P32300)
Description: as §1

[3] = MVD Ke(nM), δ antagonism, Ke = antilog of pA2
[4] = rat brain synaptosomes (P2), mean ± SEM, n in parentheses, read-out: Kiδ(nM) [^3H]DPDPE
[5] = rat brain synaptosomes (P2), δ antagonist radioligand, mean ± SEM, n in parentheses, read-out: Kiδ(nM) [^3H]N,N(CH3)2-Dmt-Tic-OH
[6] = rat brain synaptosomes (P2), mean ± SEM, n in parentheses, read-out: Kiμ (nM) [^3H]DAGO
[7] = MVD pA2 (range), δ antagonism against deltorphin C, mean (range)
[8] = δ antagonism, Ke = antilog of pA2

Sequence of hMDR-1 (P08183 whole entry): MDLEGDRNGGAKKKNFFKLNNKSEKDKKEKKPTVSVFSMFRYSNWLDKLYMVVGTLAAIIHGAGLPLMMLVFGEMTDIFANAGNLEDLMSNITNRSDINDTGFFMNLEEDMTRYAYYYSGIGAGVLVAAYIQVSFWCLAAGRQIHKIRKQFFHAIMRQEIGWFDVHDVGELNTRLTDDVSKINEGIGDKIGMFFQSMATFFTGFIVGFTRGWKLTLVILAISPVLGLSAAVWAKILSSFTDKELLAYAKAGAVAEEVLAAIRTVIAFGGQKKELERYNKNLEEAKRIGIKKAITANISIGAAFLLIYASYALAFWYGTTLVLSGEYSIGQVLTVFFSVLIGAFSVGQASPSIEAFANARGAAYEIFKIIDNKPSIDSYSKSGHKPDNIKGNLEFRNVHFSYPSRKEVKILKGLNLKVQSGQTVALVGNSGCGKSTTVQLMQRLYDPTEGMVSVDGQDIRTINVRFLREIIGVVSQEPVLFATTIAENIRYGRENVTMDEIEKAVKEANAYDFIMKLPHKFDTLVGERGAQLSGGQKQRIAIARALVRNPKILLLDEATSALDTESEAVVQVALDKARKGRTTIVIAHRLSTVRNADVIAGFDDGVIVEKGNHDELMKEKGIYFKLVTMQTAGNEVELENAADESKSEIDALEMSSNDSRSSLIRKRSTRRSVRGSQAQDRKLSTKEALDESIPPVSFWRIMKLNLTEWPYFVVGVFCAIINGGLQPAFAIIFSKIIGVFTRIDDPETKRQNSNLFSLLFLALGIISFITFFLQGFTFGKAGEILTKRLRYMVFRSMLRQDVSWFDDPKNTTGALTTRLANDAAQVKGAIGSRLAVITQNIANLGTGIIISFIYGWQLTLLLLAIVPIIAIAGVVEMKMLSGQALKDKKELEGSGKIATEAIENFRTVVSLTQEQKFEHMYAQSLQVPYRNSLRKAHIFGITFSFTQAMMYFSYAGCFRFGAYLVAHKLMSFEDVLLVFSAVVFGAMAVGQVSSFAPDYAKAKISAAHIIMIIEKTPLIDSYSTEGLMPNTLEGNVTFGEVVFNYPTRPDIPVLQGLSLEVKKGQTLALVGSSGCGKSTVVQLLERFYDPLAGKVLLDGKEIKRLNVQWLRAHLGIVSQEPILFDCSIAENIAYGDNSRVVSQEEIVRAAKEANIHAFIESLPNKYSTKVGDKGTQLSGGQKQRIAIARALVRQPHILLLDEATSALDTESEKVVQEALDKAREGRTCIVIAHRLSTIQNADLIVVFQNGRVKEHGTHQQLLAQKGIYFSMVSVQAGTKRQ
Sequence of δ receptors (P32300 whole entry): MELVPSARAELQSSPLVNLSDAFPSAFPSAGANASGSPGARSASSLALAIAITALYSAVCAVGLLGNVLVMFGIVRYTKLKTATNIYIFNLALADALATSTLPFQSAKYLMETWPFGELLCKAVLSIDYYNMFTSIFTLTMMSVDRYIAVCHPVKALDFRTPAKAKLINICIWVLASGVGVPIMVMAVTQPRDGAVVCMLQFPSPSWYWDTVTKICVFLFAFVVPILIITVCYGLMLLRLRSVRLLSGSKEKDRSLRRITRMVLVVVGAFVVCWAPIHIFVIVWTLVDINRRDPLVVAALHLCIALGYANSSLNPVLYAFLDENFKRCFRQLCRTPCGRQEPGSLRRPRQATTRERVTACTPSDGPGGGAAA
Sequence of μ receptors (P97266 whole entry, looked up): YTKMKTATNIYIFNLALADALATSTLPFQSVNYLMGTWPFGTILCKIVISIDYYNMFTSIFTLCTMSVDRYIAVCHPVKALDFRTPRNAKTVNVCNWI
T1 sequence (P33533 whole entry): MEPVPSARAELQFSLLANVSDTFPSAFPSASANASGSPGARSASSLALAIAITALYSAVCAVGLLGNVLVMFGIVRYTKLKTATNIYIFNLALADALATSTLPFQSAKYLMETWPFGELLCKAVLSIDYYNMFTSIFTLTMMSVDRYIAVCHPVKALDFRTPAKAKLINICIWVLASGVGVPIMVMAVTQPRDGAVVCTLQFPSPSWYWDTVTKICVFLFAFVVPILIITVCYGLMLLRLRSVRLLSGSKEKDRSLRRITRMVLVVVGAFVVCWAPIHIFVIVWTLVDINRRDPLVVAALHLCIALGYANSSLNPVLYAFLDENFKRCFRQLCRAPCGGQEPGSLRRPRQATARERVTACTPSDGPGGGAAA
T2 sequence (P33535 whole entry): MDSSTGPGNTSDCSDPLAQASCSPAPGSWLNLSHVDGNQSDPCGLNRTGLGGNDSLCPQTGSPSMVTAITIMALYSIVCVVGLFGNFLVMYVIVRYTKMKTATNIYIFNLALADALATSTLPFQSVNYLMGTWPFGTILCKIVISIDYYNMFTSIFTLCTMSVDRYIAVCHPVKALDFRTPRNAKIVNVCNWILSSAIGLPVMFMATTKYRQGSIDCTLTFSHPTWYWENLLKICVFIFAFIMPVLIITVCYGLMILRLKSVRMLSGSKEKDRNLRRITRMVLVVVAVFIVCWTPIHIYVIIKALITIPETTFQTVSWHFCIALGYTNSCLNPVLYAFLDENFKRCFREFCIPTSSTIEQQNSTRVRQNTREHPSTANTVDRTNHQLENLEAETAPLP

C[C@@H](NC(=O)[C@@H](N)Cc1ccc(O)cc1)C(=O)N[C@@H](Cc1ccccc1)C(=O)NCC(=O)N[C@@H](Cc1ccc(O)cc1)C(=O)N1CCC[C@H]1C(=O)N[C@@H](CO)C(N)=O [Dermorphin, H-Tyr-D-Ala-Phe-Gly-Tyr-Pro-Ser-NH2]
IC50 (μ receptors): 1.82 nM
inhibition of hMDR-1 (Pgp), in words (hMDR-1): lack of inhibition
inhibition of hMDR-1 (Pgp), in words (hMDR-1; listed as DER): inactive

C[C@@H](NC(=O)[C@@H](N)Cc1ccc(O)cc1)C(=O)N[C@@H](Cc1ccccc1)C(=O)N[C@@H](Cc1c[nH]c2ccccc12)C(=O)N[C@@H](Cc1ccc(O)cc1)C(=O)N1CCC[C@H]1C(=O)N[C@@H](CCCCN)C(=O)O [[Trp^4,Lys-OH^7]DER, H-Tyr-D-Ala-Phe-Trp-Tyr-Pro-Lys-OH] (H-Y[dA]FWYPK-OH)
inhibition of hMDR-1 (Pgp), in words (hMDR-1): inactive

C[C@@H](NC(=O)[C@@H](N)Cc1ccc(O)cc1)C(=O)N[C@@H](Cc1ccccc1)C(=O)N[C@@H](Cc1c[nH]c2ccccc12)C(=O)N[C@@H](Cc1ccc(O)cc1)C(N)=O [[Trp^4,Tyr^5]DER, H-Tyr-D-Ala-Phe-Trp-Tyr-NH2] (H-Y[dA]FWY-NH2)
inhibition of hMDR-1 (Pgp), in words (hMDR-1): inactive

H-Dmt-Sar-Bid [DSB]
inhibition of hMDR-1 (Pgp), in words (hMDR-1): inactive

Cc1cc(O)cc(C)c1C[C@H](N)C(=O)N1Cc2ccccc2C[C@H]1C(=O)NC12CC3CC(CC(C3)C1)C2 [Compound 11, H-Dmt-Tic-NH-1-adamantane]
Ki (δ-opioid receptors [1]): 0.26 ± 0.05 nM
δ/μ selectivity, in words (δ-opioid receptors [1]): weakly μ selective
Agonist K1μ/Kiδ (δ-opioid receptors [1]): 3
Ki (δ-opioid receptors [2]): 1.01 ± 0.26 nM
Antagonist K1μ/Kiδ (δ-opioid receptors [2]): 0.8
Ki (μ-opioid receptors): 0.76 ± 0.05 nM
EC50 (δ receptors): 870 nM
Kb (δ receptors; [3]): > 10000 nM
EC50 (μ receptors): 36 nM
bioactivity on GPI (μ), in words (μ receptors): moderate μ agonism
order of inhibition of hMDR-1 (hMDR-1): (compound 11)>H-Dmt-Tic-Ala-NH-1-adamantane (compound 21)

Cc1cc(O)cc(C[C@H](N)C(=O)N[C@H](Cc2ccccc2)C(=O)NCC(=O)N[C@H](C(=O)N[C@H](C(N)=O)C(C)C)C(C)C)c1C [DPD, H-Dmt-D-Phe-Gly-Val-Val-NH2]
inhibition of hMDR-1 (Pgp), in words (hMDR-1): inactive

deltorphin
inhibition of hMDR-1 (Pgp), in words (hMDR-1): lack of inhibition

Cc1cc(O)cc(C)c1C[C@H](N)C(=O)N1Cc2ccccc2C[C@H]1C(=O)NC(C)(C)C [Compound 9, H-Dmt-Tic-NH-tBu] (H-[Dmt]-[Tic]-NHtBu)
δ/μ selectivity, in words (δ-opioid receptors [1]): essentially nonselective
Ki (δ-opioid receptors [1]; [4]): 0.43 ± 0.07 nM
Agonist K1μ/Kiδ (δ-opioid receptors [1]): 14
Ki (δ-opioid receptors [2]; [5]): 0.93 ± 0.15 nM
Antagonist K1μ/Kiδ (δ-opioid receptors [2]): 6
Ki (μ-opioid receptors; [6]): 5.96 ± 0.82 nM
bioactivity on MVD (δ), in words (δ receptors): highest δ-antagonist functional bioactivities
Kb (δ receptors; [3]): 1.74 nM
Kb (δ receptors; [7]): 5.75 nM
EC50 (μ receptors): 1040 nM
order of inhibition of hMDR-1 (hMDR-1): (compound 9)>>H-Dmt-Tic-NHMe (compound 7) (inactive)

COc1ccc(CCN(C)CCCC(C#N)(c2ccc(OC)c(OC)c2)C(C)C)cc1OC (stereo not drawn) [verapamil]
maximum effective dose (hMDR-1): 75 to 100 µM

Cc1cc(O)cc(C)c1C[C@@H]1NC(=O)[C@@H]2Cc3ccccc3CN2C1=O [cyclo (DMT-Tic), reference compound]
Ki (δ-opioid receptors [1]): 9.58 ± 1.98 nM
Agonist K1μ/Kiδ (δ-opioid receptors [1]): 635 ± 69 (3-5)
Antagonist K1μ/Kiδ (δ-opioid receptors [2]): no activity
Kiμ (nM) [^3H]DAGO (μ-opioid receptors; rat brain synaptosomes (P2), mean ± SEM, n in parentheses): no activity
inhibition of hMDR-1 (Pgp), in words (hMDR-1): moderately effective inhibitor

CC1(C)SSC(C)(C)[C@@H](NC(=O)[C@@H](N)Cc2ccc(O)cc2)C(=O)NCC(=O)N[C@@H](Cc2ccccc2)C(=O)N[C@H]1C(=O)O [DPDPE, H-Tyr-[D-Pen-Gly-Phe-D-Pen] enkephalin]
inhibition of hMDR-1 (Pgp), in words (hMDR-1): inactive; also recorded: lack of inhibition

Oc1ccc2c3c1O[C@H]1c4[nH]c5ccccc5c4C[C@@]4(O)[C@@H](C2)N(CC2CC2)CC[C@]314 [naltrindole]
inhibition of hMDR-1 (Pgp), in words (hMDR-1): inhibition that dissipated at high concentrations

Cc1cc(O)cc(C)c1C[C@@H](C(=O)N1Cc2ccccc2C[C@H]1C(=O)O)N1CCCCC1 [Compound 3, [des-NH2-α-piperidine-1-yl]-Dmt-Tic-OH]
Ki (δ-opioid receptors [1]; [4]): 1.18 ± 0.1 nM
Agonist K1μ/Kiδ (δ-opioid receptors [1]): 1728
Ki (δ-opioid receptors [2]; [5]): 0.74 ± 0.3 nM
Antagonist K1μ/Kiδ (δ-opioid receptors [2]): 2755
Ki (μ-opioid receptors; [6]): 2040 ± 264 nM
bioactivity on MVD (δ), in words (δ receptors): detrimental for all bioactivity measurements on MVD
Kb (δ receptors; [7]): 49 nM
MVD Ke (δ receptors; [8]): 49 nM
EC50 (μ receptors): > 10000 nM
inhibition of hMDR-1 (Pgp), in words (hMDR-1): inactive

CNC(=O)[C@@H]1Cc2ccccc2CN1C(=O)[C@@H](N)Cc1c(C)cc(O)cc1C [Compound 7, H-Dmt-Tic-NHMe] (H-[Dmt]-[Tic]-NHMe)
Ki (μ-opioid receptors; [6]): 85.5 ± 7.7 nM
EC50 (δ receptors): 21200 nM
bioactivity on MVD (δ), in words (δ receptors): extraordinarily weak δ agonism
Kb (δ receptors; [3]): > 10000 nM
MVD pA2 (range) (δ receptors; δ antagonism against deltorphin C, mean (range)): —^d
EC50 (μ receptors): > 10000 nM
Kb (μ receptors): 1150 nM
bioactivity on GPI (μ), in words (μ receptors): low μ antagonism
GPI Ke (μ receptors; μ antagonism): 1.15 µM
inhibition of hMDR-1 (Pgp), in words (hMDR-1): inactive

Cc1cc(O)cc(C)c1C[C@H](N)C(=O)N1Cc2ccccc2C[C@H]1C(=O)N[C@@H](C)C(=O)NC12CC3CC(CC(C3)C1)C2 [Compound 21, H-Dmt-Tic-Ala-NH-1-adamantane]
Ki (μ-opioid receptors): 2.52 ± 0.56 nM
bioactivity on MVD (δ), in words (δ receptors): highest δ-antagonist functional bioactivities
Kb (δ receptors; [7]): 0.513 nM
MVD Ke (δ receptors; [8]): 0.51 nM
EC50 (μ receptors): 1000 nM
order of inhibition of hMDR-1 (hMDR-1): (compound 21)>>N,N(Me)2-Dmt-Tic-OH (inactive)

C[C@@H](NC(=O)[C@@H](N)Cc1ccc(O)cc1)C(=O)NCC(=O)N(C)[C@@H](Cc1ccccc1)C(=O)NCCO [DAGO, H-Tyr-D-Ala-Gly-N-MePhe-Gly-ol]
inhibition of hMDR-1 (Pgp), in words (hMDR-1): inactive; also recorded: lack of inhibition

H-Tyr-D-Ala-Gly-N-MePhe-Met(O)-ol [DAMME]
inhibition of hMDR-1 (Pgp), in words (hMDR-1): inactive; also recorded: lack of inhibition

Cc1cc(O)cc(C)c1C[C@@H](C(=O)N1Cc2ccccc2C[C@H]1C(=O)NC(C)(C)C)N(C)C [Compound 14, N,N(Me)2-Dmt-Tic-NH-tBu]
Ki (μ-opioid receptors; [6]): 226 ± 21 nM
bioactivity on MVD (δ), in words (δ receptors): modest δ antagonism
Kb (δ receptors; [7]): 14.1 nM
MVD Ke (δ receptors; [8]): 14.1 nM
EC50 (μ receptors): > 10000 nM
Kb (μ receptors): 300 nM
bioactivity on GPI (μ), in words (μ receptors): weak μ antagonism
order of inhibition of hMDR-1 (hMDR-1): (compound 14)>H-Dmt-Tic-Ala-NH-tBu (compound 20)

CC(C)[C@H](NC(=O)[C@H](CCC(=O)O)NC(=O)[C@H](Cc1ccccc1)NC(=O)[C@@H](C)NC(=O)[C@@H](N)Cc1ccc(O)cc1)C(=O)N[C@H](C(=O)NCC(N)=O)C(C)C [deltorphin B, H-Tyr-D-Ala-Phe-Glu-Val-Val-Gly-NH2]
inhibition of hMDR-1 (Pgp), in words (hMDR-1): inactive
